In patent publication US20220202783A1, “Use Of ADAM9 Inhibitor As Immunomodulator” (China Medical University, priority 2019, published 2022):

How the values were obtained:
Assay type in all cases: cell-based
Parameters in all cases: key to effect of inhibiting tumor cell growth: “+” represents that the compound has the effect of inhibiting tumor cell growth
[1] = cytotoxicity assay in 293 cells; conditions: 293
[2] = test system: kidney cancer cells (293); experiment: cytotoxicity assay in 293 cells; conditions: Homo sapiens, HEK293
[3] = cytotoxicity assay in HNOF cells; conditions: human, HNOF cells
HNOF = experiment: cytotoxicity assay in HNOF cells; conditions: HNOF
lung cancer cells (A549) = experiment: cytotoxicity assay in A549 cells; conditions: for IC50: Homo sapiens
Method: (§1) Please refer to FIG. 1A, FIG. 1B and Table 2, which show the analysis results of the compound of Formula (I) inhibiting ADAM9 activity. In FIG. 1A, Bm7 lung cancer cells were treated with the derivatives of the compound 6X-0310, and then cultured under anchorage-free culture condition. The expressions of ADAM9 and CDCP1 in Bm7 lung cancer cells were detected by Western blot, in which EF1α is an internal control, and mock represents Bm7 lung cancer cells without treatment. […] In the experiment, the compounds of Formula (I) of Example 1 to Example 32 were further performed cytotoxicity assay to measure the IC50 value of the compounds of Formula (I) of the present disclosure in lung cancer cell lines.

[4] = test system: lung cancer cells (H1299); experiment: cytotoxicity assay in H1299 cells; conditions: for effect of inhibiting tumor cell growth: H1299; for IC50: Homo sapiens, NCI-H1299
Method: as §1

lung cancer cells (TC1) = experiment: cytotoxicity assay in TC1 cells; conditions: for IC50: TC-1
Method: as §1

[5] = test system: lung cancer cells (Bm7brmx2); experiment: cytotoxicity assay in Bm7brmx2 cells
Method: as §1

[6] = test system: lung cancer cells (Bm7brmx2-1st); experiment: cytotoxicity assay in Bm7brmx2-1st cells
Method: as §1

[7] = test system: lung cancer cells (Bm7brmx2-2nd); experiment: cytotoxicity assay in Bm7brmx2-2nd cells
Method: as §1

O=C1c2ccccc2C(=O)N1CCc1csc(Nc2ccc(Cl)c(Cl)c2)n1 [2X-0336]
effect of inhibiting tumor cell growth [1]: +
IC50 [2]: 58.7 µM
IC50 [3]: 80 µM
effect of inhibiting tumor cell growth (HNOF): +
effect of inhibiting tumor cell growth (lung cancer cells (A549)): +
IC50 (lung cancer cells (A549)): 128 µM
effect of inhibiting tumor cell growth [4]: +
IC50 [4]: 101 µM
effect of inhibiting tumor cell growth (lung cancer cells (TC1)): +
IC50 (lung cancer cells (TC1)): 55.9 µM
IC50 [5]: 117 µM
effect of inhibiting tumor cell growth [5]: +
IC50 [6]: 37.6 µM
effect of inhibiting tumor cell growth [6]: +
IC50 [7]: 63 µM
effect of inhibiting tumor cell growth [7]: +

N#C/C(=C/c1ccc(OCc2ccccc2)cc1)c1nc(CCN2C(=O)c3ccccc3C2=O)cs1 [4X-0301]
effect of inhibiting tumor cell growth [1]: +
IC50 [2]: 49.5 µM
IC50 [3]: 77.6 µM
effect of inhibiting tumor cell growth (HNOF): +
effect of inhibiting tumor cell growth (lung cancer cells (A549)): +
IC50 (lung cancer cells (A549)): 161 µM
effect of inhibiting tumor cell growth [4]: +
IC50 [4]: 102 µM
effect of inhibiting tumor cell growth (lung cancer cells (TC1)): +
IC50 (lung cancer cells (TC1)): 71.9 µM
IC50 [5]: 128 µM
effect of inhibiting tumor cell growth [5]: +
IC50 [6]: 61.2 µM
effect of inhibiting tumor cell growth [6]: +
IC50 [7]: 310 µM
effect of inhibiting tumor cell growth [7]: +

N#C/C(=C/c1cccc(C(F)(F)F)c1)c1nc(CCN2C(=O)c3ccccc3C2=O)cs1 [4X-0302]
effect of inhibiting tumor cell growth [1]: +
IC50 [2]: 55.7 µM
IC50 [3]: 152 µM
effect of inhibiting tumor cell growth (HNOF): +
effect of inhibiting tumor cell growth (lung cancer cells (A549)): +
IC50 (lung cancer cells (A549)): 116 µM
effect of inhibiting tumor cell growth [4]: +
IC50 [4]: 190 µM
effect of inhibiting tumor cell growth (lung cancer cells (TC1)): +
IC50 (lung cancer cells (TC1)): 125 µM
IC50 [5]: 852 µM
effect of inhibiting tumor cell growth [5]: +
IC50 [6]: 520 µM
effect of inhibiting tumor cell growth [6]: +
IC50 [7]: 434 µM
effect of inhibiting tumor cell growth [7]: +

CC(C)CN1CCCc2cc(/C=C(\C#N)c3nc(CCN4C(=O)c5ccccc5C4=O)cs3)ccc21 [4X-0311]
effect of inhibiting tumor cell growth [1]: +
IC50 [2]: 62.9 µM
IC50 [3]: 80.7 µM
effect of inhibiting tumor cell growth (HNOF): +
effect of inhibiting tumor cell growth (lung cancer cells (A549)): +
IC50 (lung cancer cells (A549)): 238 µM
effect of inhibiting tumor cell growth [4]: +
IC50 [4]: > 125 µM
effect of inhibiting tumor cell growth (lung cancer cells (TC1)): +
IC50 (lung cancer cells (TC1)): 345 µM
IC50 [5]: 60.6 µM
effect of inhibiting tumor cell growth [5]: +
IC50 [6]: 34.4 µM
effect of inhibiting tumor cell growth [6]: +
IC50 [7]: 86.6 µM
effect of inhibiting tumor cell growth [7]: +

N#C/C(=C\c1ccccc1Oc1ccc(Cl)cc1Cl)c1nc(CCN2C(=O)c3ccccc3C2=O)cs1 [4X-0312]
effect of inhibiting tumor cell growth [1]: +
IC50 [2]: 134 µM
IC50 [3]: 262 µM
effect of inhibiting tumor cell growth (HNOF): +
effect of inhibiting tumor cell growth (lung cancer cells (A549)): +
IC50 (lung cancer cells (A549)): 644 µM
effect of inhibiting tumor cell growth [4]: +
IC50 [4]: 121 µM
effect of inhibiting tumor cell growth (lung cancer cells (TC1)): +
IC50 (lung cancer cells (TC1)): 136 µM
IC50 [5]: 301 µM
effect of inhibiting tumor cell growth [5]: +
IC50 [6]: 63.4 µM
effect of inhibiting tumor cell growth [6]: +
IC50 [7]: 491 µM
effect of inhibiting tumor cell growth [7]: +

N#C/C(=C\c1ccncc1)c1nc(CCN2C(=O)c3ccccc3C2=O)cs1 [4X-0314]
effect of inhibiting tumor cell growth [1]: +
IC50 [2]: 269 µM
IC50 [3]: 153 µM
effect of inhibiting tumor cell growth (HNOF): +
effect of inhibiting tumor cell growth (lung cancer cells (A549)): +
IC50 (lung cancer cells (A549)): 527 µM
effect of inhibiting tumor cell growth [4]: +
IC50 [4]: 38400 µM
effect of inhibiting tumor cell growth (lung cancer cells (TC1)): +
IC50 (lung cancer cells (TC1)): 176 µM
IC50 [5]: 202 µM
effect of inhibiting tumor cell growth [5]: +
IC50 [6]: 1420 µM
effect of inhibiting tumor cell growth [6]: +
IC50 [7]: 15700 µM
effect of inhibiting tumor cell growth [7]: +

O=C1c2ccccc2C(=O)N1CCc1csc(OCc2cc(F)c(F)c(F)c2)n1 [13W-0300]
effect of inhibiting tumor cell growth [1]: +
effect of inhibiting tumor cell growth (HNOF): +
effect of inhibiting tumor cell growth (lung cancer cells (A549)): +
effect of inhibiting tumor cell growth [4]: +
effect of inhibiting tumor cell growth (lung cancer cells (TC1)): +
effect of inhibiting tumor cell growth [5]: +
effect of inhibiting tumor cell growth [6]: +
effect of inhibiting tumor cell growth [7]: +

O=C1c2ccccc2C(=O)N1CCc1csc(SCc2ccc(C(F)(F)F)cc2)n1 [13W-0301]
effect of inhibiting tumor cell growth [1]: +
effect of inhibiting tumor cell growth (HNOF): +
effect of inhibiting tumor cell growth (lung cancer cells (A549)): +
effect of inhibiting tumor cell growth [4]: +
effect of inhibiting tumor cell growth (lung cancer cells (TC1)): +
effect of inhibiting tumor cell growth [5]: +
effect of inhibiting tumor cell growth [6]: +
effect of inhibiting tumor cell growth [7]: +

O=C(c1nc(CCN2C(=O)c3ccccc3C2=O)cs1)C(O)c1cc2ccccc2o1 (centres unmarked) [13W-0302]
effect of inhibiting tumor cell growth [1]: +
effect of inhibiting tumor cell growth (HNOF): +
effect of inhibiting tumor cell growth (lung cancer cells (A549)): +
effect of inhibiting tumor cell growth [4]: +
effect of inhibiting tumor cell growth (lung cancer cells (TC1)): +
effect of inhibiting tumor cell growth [5]: +
effect of inhibiting tumor cell growth [6]: +
effect of inhibiting tumor cell growth [7]: +

O=C1c2ccccc2C(=O)N1CCc1csc(-c2cc3ccccc3[nH]2)n1 [13W-0303]
effect of inhibiting tumor cell growth [1]: +
effect of inhibiting tumor cell growth (HNOF): +
effect of inhibiting tumor cell growth (lung cancer cells (A549)): +
effect of inhibiting tumor cell growth [4]: +
effect of inhibiting tumor cell growth (lung cancer cells (TC1)): +
effect of inhibiting tumor cell growth [5]: +
effect of inhibiting tumor cell growth [6]: +
effect of inhibiting tumor cell growth [7]: +

O=C1c2ccccc2C(=O)N1CCc1csc(N2C(=O)c3ccccc3C2=O)n1 [13W-0305]
effect of inhibiting tumor cell growth [1]: +
effect of inhibiting tumor cell growth (HNOF): +
effect of inhibiting tumor cell growth (lung cancer cells (A549)): +
effect of inhibiting tumor cell growth [4]: +
effect of inhibiting tumor cell growth (lung cancer cells (TC1)): +
effect of inhibiting tumor cell growth [5]: +
effect of inhibiting tumor cell growth [6]: +
effect of inhibiting tumor cell growth [7]: +

O=C1c2ccccc2C(=O)N1CCc1csc(N2CCCCC2)n1 [13W-0306]
effect of inhibiting tumor cell growth [1]: +
effect of inhibiting tumor cell growth (HNOF): +
effect of inhibiting tumor cell growth (lung cancer cells (A549)): +
effect of inhibiting tumor cell growth [4]: +
effect of inhibiting tumor cell growth (lung cancer cells (TC1)): +
effect of inhibiting tumor cell growth [5]: +
effect of inhibiting tumor cell growth [6]: +
effect of inhibiting tumor cell growth [7]: +

O=C1CCC(=O)C1c1nc(CCN2C(=O)c3ccccc3C2=O)cs1 [13W-0307]
effect of inhibiting tumor cell growth [1]: +
effect of inhibiting tumor cell growth (HNOF): +
effect of inhibiting tumor cell growth (lung cancer cells (A549)): +
effect of inhibiting tumor cell growth [4]: +
effect of inhibiting tumor cell growth (lung cancer cells (TC1)): +
effect of inhibiting tumor cell growth [5]: +
effect of inhibiting tumor cell growth [6]: +
effect of inhibiting tumor cell growth [7]: +
